In patent US20240182513A1, “SEPARATION OF METAL IONS FROM A SAMPLE USING GLYCOLIPIDS” (ARIZONA BOARD OF REGENTS ON BEHALF OF THE UNIVERSITY OF …, priority 2021, published 2024):

Experiment: Example 2.1 rhamnolipid precipitation, filtration, centrifugation: lead
Details: for Treatment 2: Rhamnolipid and Filtration Cf / Treatment 3: Rhamnolipid and Centrifugation Cc / Treatment 1: Rhamnolipid Only Cr: lead concentration after treatment; for Treatment 1: Rhamnolipid Only (Rr) efficiency of removal / Treatment 2: Rhamnolipid and Filtration (Rf) efficiency of removal / Treatment 3: Rhamnolipid and Centrifugation (Rc) efficiency of removal: lead
Experimental: Structural variants of synthetic glycolipids were used to show the effect of the number and length of the hydrophobic tail(s) on rhamnolipid as a chemical precipitant. […] Solutions (10 mM) were made using nanopure water (≥18 MΩ-cm) then adjusted to a pH of 6.9±0.05 with HNO3 and NaOH. These solutions were made in advance and stored in the cold room for up to one month. They were brought to room temperature before each experiment.
Three metals were tested for binding with rhamnolipid. Lead as […] (Fisher Scientific, Waltham, MA, 99% purity), was chosen to represent a metal with high rhamnolipid-metal conditional stability constant; lanthanum as La(NO3)3 6(H2O) (Sigma-Aldrich, St. Louis, MO, 99.99% purity) was chosen as a representative REE; and magnesium as Mg(NO3)2 6(H2O) (Sigma-Aldrich, St. Louis, MO, 99% purity) was chosen to represent a metal with a low rhamnolipid-metal conditional stability constant (Hogan et al., 2017). Metal solutions (5 mM) were made using nanopure water (≥18 MΩ-cm) in 20 ml glass scintillation vials. All solutions were used within 15 min to ensure minimal adsorption to the glass vial.
Three glycolipid-based treatments were evaluated to remove metal from solution: (1) the addition of glycolipid with no further treatment (gravitational precipitation), (2) the addition of a glycolipid followed by filtration or (3) the addition of a glycolipid followed by centrifugation. Each metal (Pb, La, and Mg) was evaluated separately with each of the glycolipid structures. For each experiment, a metal solution was mixed with a glycolipid solution in a 1.7 ml reaction tube at varying molar ratios of glycolipid to metal: 0:1 (glycolipid-free control), 2:1, 5:1, and 10:1. The reactions were mixed in the order of nanopure water (≥18 MΩ-cm), glycolipid solution (10 mM), then metal solution (5 mM). The metal and glycolipid solutions were continuously stirred as they were aliquoted into the reaction tubes. The experiment was performed in triplicate.
The reaction tubes were mixed overnight (16 to 24 h) and then three samples were collected from each tube to measure the effect of each of the three treatments: a glycolipid only treatment sample, a filtration treatment sample, and a centrifugation treatment sample. Briefly, for the glycolipid only treatment samples all tubes were vortexed for approximately 5 sec immediately before removing 0.1 ml into a dilution tube of 2% trace metal grade nitric acid (12 to 14 ml) to minimize the settling of particles. For the filtration samples each reaction tube was vortexed for 5 sec and then a 0.6 ml aliquot was collected with a 1 ml syringe. A GHP acrodisc disk filter (hydrophilic polypropylene membrane, 0.45 μm pore size, 25 mm disc diameter) from Pall Life Sciences (Port Washington, New York) was then placed onto the end of the syringe and the solution was pushed through the filter. The void space in the disk filter holds approximately 0.5 ml, therefore around 0.1 ml of filtrate was collected into a dilution tube. For the centrifugation sample, the remaining solution was centrifuged at 10,000 RCF for 15 min. Approximately 0.1 ml of the supernatant was aliquoted into a dilution tube. Following collection, all samples were taken for metal analysis using ICP-MS.

CCCCCCCCCC(CC(=O)O)OC(=O)CC(CCCCCCCCC)OC1O[C@@H](C)[C@H](O)[C@@H](O)[C@H]1O (stereo partly drawn) [Rha C12C12, rhamnosyl-β-hydroxydodecanoyl-62-hydroxydodecanoate]
Treatment 2: Rhamnolipid and Filtration Cf (molar ratio 2 to 1): 0.069 ± 0.018 mmol/L
Treatment 3: Rhamnolipid and Centrifugation Cc (molar ratio 2 to 1): 0.146 ± 0.008 mmol/L
Treatment 1: Rhamnolipid Only Cr (molar ratio 5 to 1): 0.204 ± 0.004 mmol/L
Treatment 2: Rhamnolipid and Filtration Cf (molar ratio 5 to 1): 0.049 ± 0.021 mmol/L
Treatment 3: Rhamnolipid and Centrifugation Cc (molar ratio 5 to 1): 0.047 ± 0.003 mmol/L
Treatment 1: Rhamnolipid Only Cr (molar ratio 10 to 1): 0.249 ± 0.10 mmol/L
Treatment 2: Rhamnolipid and Filtration Cf (molar ratio 10 to 1): 0.059 ± 0.028 mmol/L
Treatment 3: Rhamnolipid and Centrifugation Cc (molar ratio 10 to 1): 0.129 ± 0.002 mmol/L
Treatment 1: Rhamnolipid Only Cr (molar ratio rhamnolipid:lead 2 to 1): 0.211 ± 0.010 mmol/L
Treatment 1: Rhamnolipid Only (Rr) efficiency of removal (molar ratio 2 to 1): (22.4%)
Treatment 2: Rhamnolipid and Filtration (Rf) efficiency of removal (molar ratio 2 to 1): (74.8%)
Treatment 3: Rhamnolipid and Centrifugation (Rc) efficiency of removal (molar ratio 2 to 1): (46.4%)
Treatment 1: Rhamnolipid Only (Rr) efficiency of removal (molar ratio 5 to 1): (25.0%)
Treatment 2: Rhamnolipid and Filtration (Rf) efficiency of removal (molar ratio 5 to 1): (81.8%)
Treatment 3: Rhamnolipid and Centrifugation (Rc) efficiency of removal (molar ratio 5 to 1): (82.8%)
Treatment 1: Rhamnolipid Only (Rr) efficiency of removal (molar ratio 10 to 1): (8.6%)
Treatment 2: Rhamnolipid and Filtration (Rf) efficiency of removal (molar ratio 10 to 1): (78.3%)
Treatment 3: Rhamnolipid and Centrifugation (Rc) efficiency of removal (molar ratio 10 to 1): (52.8%)
